Reference: patent US20100279990A1, “ANTIPROLIFERATIVE COMPOUNDS, COMPOSITIONS AND METHODS OF USE” (RAMOT AT TEL-AVIV UNIVERSITY LTD., priority 2006, published 2010)
pIC50: −log10 of the molar value.

How the values were obtained:
[1] = test system: Con-A activated naive mouse splenocytes; experiment: Con-A-induced mouse splenocyte proliferation, alamar blue staining; format: cell-based; details: Splenocyte, 48 hr, alamar blue, read-out: IC50, inhibition in cell viability
Description: This example illustrates cell viability data obtained by separately administering different concentrations of compound (Ia), paroxetine, citalopram, and ecitalopram to Con-A activated naive mouse splenocytes. FIG. 3A depicts the comparative effect of compound (Ia), paroxetine, citalopram and ecitalopram on Con-A-induced mouse splenocyte proliferation using alamar blue staining after 48 hr. Each point represents the mean+/−SE of 5 determinations.

[2] = test system: PHA activated healthy human T cells; experiment: PHA induced proliferation of healthy human lymphocytes, alamar blue; format: cell-based
[3] = test system: human keratinocytes (HaCat cells); experiment: Viability of human keratinocytes (HaCat cells), neutral red staining; format: cell-based; details: 24 hr, read-out: IC50, cell viability
[4] = test system: c-jun and p-c-jun expression in HaCat cells; experiment: Western blot of c-jun and p-c-jun expression in HaCat cells; format: cell-based, human; details: 15 μM, 1 hr
Description: For each sample 2×10^7 cells were used. The cells were lysed, and equal amounts of protein was fractionated on polyacrylamide gel and then transferred to PVDF membrane. The amount of the protein was detected by immuno-blotting with monoclonal anti-c-Jun or p-c-Jun antibodies (Cayman, Ann Arbor, Mich., USA). A second antibody conjugated to horseradish peroxidase was used and visualized with chemiluminescent Kit (Pierce, Rockford, Ill., USA) on film. […] Activation of the […] pathway produces p-c-Jun as a major end, while initiating apoptosis in certain cell-lines.

[5] = test system: resistant colon carcinoma LS1034 cell-line; experiment: Viability of resistant colon carcinoma LS1034 cell-line (FIG. 7A); format: cell-based; details: LS-1034, read-out: IC50, inhibition of cell viability
Description: This example illustrates cell viability data obtained by separately administering different concentrations of compound (Ia), sertraline, paroxetine, and doxorubicin to a […] resistant colon carcinoma LS1034 cell-line. The results are depicted in FIG. 7A.

[6] = test system: CEM/C1 human leukemia cells; experiment: Cell proliferation of CEM/C1 human leukemia cells, 3H thymidine incorporation; format: cell-based
Method: […] Cells, 10,000/well, were harvested and the incorporated radioactivity was determined by liquid scintillation in a beta counter.

LXF 629L = experiment: Monolayer Assay, PI: LXF 629L (Lung); format: cell-based, human
Description: (§1) This example illustrates cell proliferation data in the form of IC50, IC70 and IC90 values obtained by exposure of human cancer cell-lines to compound (Ia). […].

MAXF MCF7 = experiment: Monolayer Assay, PI: MAXF MCF7 (Breast); format: cell-based, human
Description: as §1

MEXF 520L = experiment: Monolayer Assay, PI: MEXF 520L (Melanoma); format: cell-based, human
Description: as §1

OVXF 1619L = experiment: Monolayer Assay, PI: OVXF 1619L (Ovarian Cancer); format: cell-based, human
Description: as §1

OVXF 899L = experiment: Monolayer Assay, PI: OVXF 899L (Ovarian Cancer); format: cell-based, human
Description: as §1

PAXF PANC1 = experiment: Monolayer Assay, PI: PAXF PANC1; format: cell-based, human
Description: as §1

RXF 1781L = experiment: Monolayer Assay, PI: RXF 1781L (Renal); format: cell-based, human
Description: as §1

XCL A431 = experiment: Monolayer Assay, PI: XCL A431; format: cell-based, human
Description: as §1

CN[C@H]1CC[C@@H](c2ccc(Cl)c(Cl)c2)c2ccc(C#CCCCO)cc21 [compound (Ia), (1S-cis)-4-(3,4-dichlorophenyl)-7-(5-hydroxy-1-pentyn-1-yl)-1,2,3,4-tetrahydro-N-methyl-1-naphthalenamine hydroiodide]
pIC50 [1]: 5.41
potency relative to sertraline [2]: about 3 times
pIC50 ([2]; T-cell, 48 hr, alamar blue): 5.01
pIC50 [3]: 4.73
effect on c-Jun / p-c-Jun (MAPK pathway) [4]: activation of the c-Jun-N-terminal kinase (JNK) pathway
pIC50 [5]: 4.95
effect compared to sertraline and paroxetine [6]: significantly higher effects compared to sertraline and paroxetine
cell proliferation ([6]; 1 μM, 3H thymidine incorporation 24 hours): 38.8 % of controls
inhibition at 10 µM ([6]; Homo sapiens, 10 μM, 3H thymidine incorporation): ~95%
effect on cell proliferation ([6]; already evident at 1 μM): dose dependent decrease in cell proliferation
Test/Control (%) (LXF 629L; 2.3 μg/ml): 94%
Test/Control activity class (LXF 629L; 2.3 μg/ml): − (− (T/C = 50))
Test/Control (%) (LXF 629L; 7.5 μg/ml): 4%
Test/Control activity class (LXF 629L; 7.5 μg/ml): +++ (+++ (T/C < 10))
Test/Control (%) (LXF 629L; 23. μg/ml): 1%
Test/Control activity class (LXF 629L; 23. μg/ml): +++ (+++ (T/C < 10))
Test/Control (%) (LXF 629L; 75. μg/ml): 2%
Test/Control activity class (LXF 629L; 75. μg/ml): +++ (+++ (T/C < 10))
Test/Control (%) (LXF 629L; .75 μg/ml): 99%
Test/Control activity class (LXF 629L; .75 μg/ml): − (− (T/C = 50))
Test/Control (%) (MAXF MCF7; 2.3 μg/ml): 67%
Test/Control activity class (MAXF MCF7; 2.3 μg/ml): − (− (T/C = 50))
Test/Control (%) (MAXF MCF7; 7.5 μg/ml): 5%
Test/Control activity class (MAXF MCF7; 7.5 μg/ml): +++ (+++ (T/C < 10))
Test/Control (%) (MAXF MCF7; 23. μg/ml): 2%
Test/Control activity class (MAXF MCF7; 23. μg/ml): +++ (+++ (T/C < 10))
Test/Control (%) (MAXF MCF7; 75. μg/ml): 3%
Test/Control activity class (MAXF MCF7; 75. μg/ml): +++ (+++ (T/C < 10))
Test/Control (%) (MAXF MCF7; .75 μg/ml): 93%
Test/Control activity class (MAXF MCF7; .75 μg/ml): − (− (T/C = 50))
Test/Control (%) (MEXF 520L; 2.3 μg/ml): 83%
Test/Control activity class (MEXF 520L; 2.3 μg/ml): − (− (T/C = 50))
Test/Control (%) (MEXF 520L; 7.5 μg/ml): 8%
Test/Control activity class (MEXF 520L; 7.5 μg/ml): ++ (++ (10 <= T/C < 30))
Test/Control (%) (MEXF 520L; 23. μg/ml): 2%
Test/Control activity class (MEXF 520L; 23. μg/ml): +++ (+++ (T/C < 10))
Test/Control (%) (MEXF 520L; 75. μg/ml): 4%
Test/Control activity class (MEXF 520L; 75. μg/ml): +++ (+++ (T/C < 10))
Test/Control (%) (MEXF 520L; .75 μg/ml): 102%
Test/Control activity class (MEXF 520L; .75 μg/ml): − (− (T/C = 50))
Test/Control (%) (OVXF 1619L; 2.3 μg/ml): 88%
Test/Control activity class (OVXF 1619L; 2.3 μg/ml): − (− (T/C = 50))
Test/Control (%) (OVXF 1619L; 7.5 μg/ml): 2%
Test/Control activity class (OVXF 1619L; 7.5 μg/ml): +++ (+++ (T/C < 10))
Test/Control (%) (OVXF 1619L; 23. μg/ml): 1%
Test/Control activity class (OVXF 1619L; 23. μg/ml): +++ (+++ (T/C < 10))
Test/Control (%) (OVXF 1619L; 75. μg/ml): 1%
Test/Control activity class (OVXF 1619L; 75. μg/ml): +++ (+++ (T/C < 10))
Test/Control (%) (OVXF 1619L; .75 μg/ml): 98%
Test/Control activity class (OVXF 1619L; .75 μg/ml): − (− (T/C = 50))
Test/Control (%) (OVXF 899L; 2.3 μg/ml): 94%
Test/Control activity class (OVXF 899L; 2.3 μg/ml): − (− (T/C = 50))
Test/Control (%) (OVXF 899L; 7.5 μg/ml): 10%
Test/Control activity class (OVXF 899L; 7.5 μg/ml): ++ (++ (10 <= T/C < 30))
Test/Control (%) (OVXF 899L; 23. μg/ml): 3%
Test/Control activity class (OVXF 899L; 23. μg/ml): +++ (+++ (T/C < 10))
Test/Control (%) (OVXF 899L; 75. μg/ml): 4%
Test/Control activity class (OVXF 899L; 75. μg/ml): +++ (+++ (T/C < 10))
Test/Control (%) (OVXF 899L; .75 μg/ml): 100%
Test/Control activity class (OVXF 899L; .75 μg/ml): − (− (T/C = 50))
Test/Control (%) (PAXF PANC1; 2.3 μg/ml): 98%
Test/Control activity class (PAXF PANC1; 2.3 μg/ml): − (− (T/C = 50))
Test/Control (%) (PAXF PANC1; 7.5 μg/ml): 33%
Test/Control activity class (PAXF PANC1; 7.5 μg/ml): + (+ (30 <= T/C < 50))
Test/Control (%) (PAXF PANC1; 23. μg/ml): 3%
Test/Control activity class (PAXF PANC1; 23. μg/ml): +++ (+++ (T/C < 10))
Test/Control (%) (PAXF PANC1; 75. μg/ml): 4%
Test/Control activity class (PAXF PANC1; 75. μg/ml): +++ (+++ (T/C < 10))
Test/Control (%) (PAXF PANC1; .75 μg/ml): 105%
Test/Control activity class (PAXF PANC1; .75 μg/ml): − (− (T/C = 50))
Test/Control (%) (RXF 1781L; 2.3 μg/ml): 76%
Test/Control activity class (RXF 1781L; 2.3 μg/ml): − (− (T/C = 50))
Test/Control (%) (RXF 1781L; 7.5 μg/ml): 4%
Test/Control activity class (RXF 1781L; 7.5 μg/ml): +++ (+++ (T/C < 10))
Test/Control (%) (RXF 1781L; 23. μg/ml): 3%
Test/Control activity class (RXF 1781L; 23. μg/ml): +++ (+++ (T/C < 10))
Test/Control (%) (RXF 1781L; 75. μg/ml): 3%
Test/Control activity class (RXF 1781L; 75. μg/ml): +++ (+++ (T/C < 10))
Test/Control (%) (RXF 1781L; .75 μg/ml): 96%
Test/Control activity class (RXF 1781L; .75 μg/ml): − (− (T/C = 50))
Test/Control (%) (XCL A431; 2.3 μg/ml): 94%
Test/Control activity class (XCL A431; 2.3 μg/ml): − (− (T/C = 50))
Test/Control (%) (XCL A431; 7.5 μg/ml): 6%
Test/Control activity class (XCL A431; 7.5 μg/ml): +++ (+++ (T/C < 10))
Test/Control (%) (XCL A431; 23. μg/ml): 3%
Test/Control activity class (XCL A431; 23. μg/ml): +++ (+++ (T/C < 10))
Test/Control (%) (XCL A431; 75. μg/ml): 2%
Test/Control activity class (XCL A431; 75. μg/ml): +++ (+++ (T/C < 10))
Test/Control (%) (XCL A431; .75 μg/ml): 100%
Test/Control activity class (XCL A431; .75 μg/ml): − (− (T/C = 50))
